Common to all, as to design: key: “+” = active; “−” = inactive; “pr” = promoting
The target of one experiment is T1, Aβ40 (Homo sapiens, UniProt P05067).
T1 construct: 200 μM of a test compound and 20 μM of solubilized Aβ40
In words: mass spectroscopy (MS) assay, binding to Aβ. The settings on record: 200 μM test compound, 20 μM solubilized Aβ40, pH 7.4; ability to bind to Aβ. On the procedure: Test compounds were purchased from commercial sources or synthesized and screened by thioflavin T fluorescent assay (“ThT assay”). Alternatively, one could screen test compounds by circular dichroism (“CD”), electron microscopy (“EM”), or mass spectroscopy (“MS”) assays.
And in the mass spectroscopy (“MS”) assay, samples were prepared as aqueous solutions containing 20% ethanol, 200 μM of a test compound and 20 μM of solubilized Aβ40. The pH value of each sample was adjusted to 7.4 (±0.2) by addition of 0.1% aqueous sodium hydroxide. The solutions were then analyzed by electrospray ionization mass spectroscopy using a Waters ZQ 4000 mass spectrometer. Samples were introduced by direct infusion at a flow-rate of 25 μL/min within 2 hr. after sample preparation. The source temperature was kept at 70° C. and the cone voltage was 20 V for all the analysis. Data were processed using Masslynx 3.5 software.

A further experiment addresses T2, Aβ (1-40) (Homo sapiens, UniProt P05067).
T2 construct: Aβ peptide: Aβ (1-40) 95% purity (American Peptide Company, Inc, Sunnyvale, Calif. USA); purchased American Peptide Company, Inc, Sunnyvale, Calif; USA
In words: thioflavin T fluorescent assay (ThT assay) for fibrillogenesis. Format: biochemical. The settings on record: Aβ (1-40) 20 μM, 5 μM Thioflavin T, pH 7.40, 37° C.; inhibition of fibrillogenesis. The text has this:
Test compounds were purchased from commercial sources or synthesized and screened by thioflavin T fluorescent assay (“ThT assay”). Alternatively, one could screen test compounds by circular dichroism (“CD”), electron microscopy (“EM”), or mass spectroscopy (“MS”) assays. The MS assay gives data on the ability of compounds to bind to an amyloid protein, whereas the ThT, EM, and CD assays give data on inhibition of fibrillogenesis. The thioflavin T fluorescent assay for fibrillogenesis is based on the principle that the fluorescent dye, thioflavin T, binds specifically to fibrillar, but not to unaggregate Aβ peptide (LeVine III, H., 1993, Protein Science 2:404-410). Upon binding, thioflavin T develops a characteristic fluorescence (Naiki, H., et al., 1996, Lab. Invest. 74: 374-383) which can be easily detected. The dye is believed to interact with the stacked cross-β pleated sheets, the common structural motif of all amyloid (LeVine III, H., 1995, Amyloid: Int. J. Exp. Clin Invest. 2:1.6). Thioflavin T is widely used to assay the effect of compounds on fibrillogenesis of Aβ peptide and other amyloid proteins (Bronfman, P. C., et al., 1995, Neuroscience Lett. 218:201-203). In this assay, test compounds are incubated with a solution of Aβ (1-40) (20 μM) or IAPP (10 μM) containing 5 μM Thioflavin T, in 0.02M Tris/0.02M acetate/0.15M NaCl/0.005% azide/pH 7.40 at 37° C. in sealed 384 well microplates. Readings (ex 430 nm/em 485 nm) are taken at various time intervals with a microplate fluorescence reader. An increase in fluorescence signifies the appearance of amyloid or intermediates in the production of amyloid, as illustrated in the Figures (in general, a compound which inhibits fibrillogenesis produces lower fluorescence in the assay because the fluorescence of ThT is greater when bound to fibrils). Protocol: Aβ peptide: Aβ (1-40) 95% purity (American Peptide Company, Inc, Sunnyvale, Calif. USA) is disaggregated in trifluoroacetic acid and filtered through a […] filter, (Whatman Anotop 25 plus, 0.02 μm, Catalogue no. 6809 4102) in hexafluoroisopropanol (HFIP). Solutions of Aβ (1-40) or IAPP at 600 μm in HFIP are stored at −80° C. Assay mixture: The mixture is prepared as two solutions which are combined upon addition to the 384 well microplate (Corning Costar cat. 3705). i) Solution A consists of test compounds in 0.02M Tris/0.02M acetate/0.15M NaCl/0.01% azide at pH 7.40 or buffer alone (control), ii) Solution B consists of Aβ (1-40) 40 μM or IAPP 20 μM, Thioflavin T […] in 0.02M Tris/0.02M acetate/0.15M NaCl at pH 7.40. This solution is prepared by drying the Aβ peptide under nitrogen and then resuspending this in 0.04M Tris base with 15 minutes sonication. An equal volume of 0.04M acetic acid containing 0.3 M NaCl is added and the solution is adjusted to 7.40±0.02. A small volume of 20 mM Thioflavin T is added to the solution to give a final 5 μM concentration of Thioflavin T. iii) The microplate is loaded with 40 μL of solution A followed by 40 μL of solution B which gives a final 20 μM Aβ (1-40) or 10 μM IAPP, 5 μM Thioflavin T, and a given concentration of test compound in 0.02M Tris/0.02M acetate/0.15M NaCl/0.005% azide, pH 7.40. The plate is sealed and loaded into the microplate fluorescence reader. Fluorescence measurement data analysis: The HTS-7000 Bio Assay Reader, Perkin Elmer, is used to perform kinetic runs of about 1 day. Readings were taken at 15 minute intervals, with one minute shaking before each read. Bandpass filters used were: excitation 430 nm, emission […].

Experiment [1] addresses T3, Aβ (Homo sapiens, UniProt P05067).
T3 construct: Aβ peptide: Aβ (1-40) 95% purity (American Peptide Company, Inc, Sunnyvale, Calif. USA)
Description: circular dichroism (CD) assay, inhibition of fibrillogenesis. In kind it is biochemical. The settings on record: soluble Aβ, 37° C., 190-240 nm. The text has this: (§1) Test compounds were purchased from commercial sources or synthesized and screened by thioflavin T fluorescent assay (“ThT assay”). Alternatively, one could screen test compounds by circular dichroism (“CD”), electron microscopy (“EM”), or mass spectroscopy (“MS”) assays. The MS assay gives data on the ability of compounds to bind to an amyloid protein, whereas the ThT, EM, and CD assays give data on inhibition of fibrillogenesis.
In the circular dichroism (“CD”) assay, samples were transferred to 0.1-cm path-length quartz cuvettes and CD scans were taken using a Jasco J-715 spectropolarimeter. Readings were taken at 37° C., between 190 and 240 nm, with a resolution of 0.1 nm and a bandwidth of 1 nm. […]
On the technique in general: Circular dichroism is the unequal absorption of left and right circularly polarised light.

In experiment [2] the target is T3, Aβ. Description: electron microscopy (EM) assay, inhibition of fibrillogenesis. The settings on record: soluble Aβ. Format: biochemical.
Source text: as §1
Similarly, in the electron microscopy (“EM”) assay, each sample was sonicated for 1 min to disrupt large clumps before testing. The sample (5-μL aliquot) was placed on freshly cleaved mica and allowed to air dry. The mica was placed in a Balzers High-vacuum, Freeze-Etch Unit (model 301), shadowed with platinum (30° angle), and coated with a carbon film. The replica was removed from the mica by flotation and transferred onto a 300-mesh copper grid. Samples were examined using a Joel 2000 FX transmission electron microscope. […]

We go through 18 molecules from patent publication US20040147531A1, “Amidine derivatives for treating amyloidosis” (priority 2001, published 2004).

T1 sequence (P05067 672-711 limits assumed): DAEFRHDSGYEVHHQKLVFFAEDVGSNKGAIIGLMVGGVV
T3 sequence (P05067 672-711 limits assumed): as above
T2 sequence (P05067 672-711 limits assumed): as above

Consider `N=C(N)c1ccc(OCCCCOc2ccc(C(=N)N)cc2)cc1` [Compound 5], for which the “MS Assay” value on Aβ40 is given as “+”. The “ThT Assay” value on Aβ (1-40) was “+”.

With `N=C(N)c1ccc(OCOc2ccc(C(=N)N)cc2)cc1` [Compound 9], on Aβ [1], the CD result is “+”. The EM result on Aβ [2] is recorded as “−”. The “MS Assay” value at Aβ40 is on record as “+”. In addition, at Aβ (1-40), the “ThT Assay” value was “+”.

Take `N=C(N)c1ccc(OCc2cccc(COc3ccc(C(=N)N)cc3)c2)cc1` [Compound 24]: the EM result at Aβ [2] is “+”. Further, the “MS Assay” value at Aβ40 is “+”. Also, the “ThT Assay” value on Aβ (1-40) is on record as “+”.

As for `c1cc(COc2ccc(C3=NCCN3)cc2)cc(COc2ccc(C3=NCCN3)cc2)c1` [Compound 25], the EM result at Aβ [2] is “+”. The “ThT Assay” value on Aβ (1-40) was “+”.

Regarding `N=C(N)c1ccc(OCc2ccc(COc3ccc(C(=N)N)cc3)cc2)cc1` [Compound 26], the EM result on Aβ [2] is recorded as “−”. For the same molecule, at Aβ (1-40), the “ThT Assay” value was “+”.

Consider `c1cc(COc2ccc(C3=NCCN3)cc2)ccc1COc1ccc(C2=NCCN2)cc1` [Compound 27], for which the “ThT Assay” value at Aβ (1-40) is “pr”.

Regarding `N=C(N)c1ccc(-c2cc3ccc(C(=N)N)cc3[nH]2)cc1` [Compound 28], the CD entry at Aβ [1] was “+”. In addition, the EM result on Aβ [2] is reported as “+”. On Aβ (1-40), the “ThT Assay” value is given as “+”.

As to `N=C(N)c1ccc(OCCC(O)COc2ccc(C(=N)N)cc2)cc1` (stereo not shown) [Compound 31], the EM result at Aβ [2] was “−”. On Aβ40, the “MS Assay” value is “+”. In addition, the “ThT Assay” value on Aβ (1-40) is listed as “+”.

Consider `c1cc(C2=NCCN2)ccc1OCCOCCOc1ccc(C2=NCCN2)cc1` [Compound 35], for which the EM entry on Aβ [2] is on record as “−”. Moreover, the “MS Assay” value at Aβ40 is listed as “+”. The “ThT Assay” value on Aβ (1-40) is “+”.

On to `N=C(N)CCCOc1ccc(C(=N)N)cc1` [Compound 41], for which, at Aβ40, the “MS Assay” value is given as “+”. The “ThT Assay” value on Aβ (1-40) is recorded as “+”.

Take `Cl.N=C(N)c1ccccc1` [Compound 46]: the CD entry on Aβ [1] was “−”. Also, on Aβ [2], the EM result is on record as “−”. In addition, on Aβ (1-40), the “ThT Assay” value was “−”.

Regarding `COc1ccc(-c2ccc(-c3ccc(C(=N)N)cc3)o2)cc1` [Compound 117], on Aβ [1], the CD entry is recorded as “−”. In addition, the EM entry on Aβ [2] is “+”. Moreover, the “MS Assay” value at Aβ40 is reported as “+”.

As for `N=C(N)c1ccc(-c2coc(-c3ccc(C(=N)N)cc3)c2)cc1` [Compound 120], the CD entry at Aβ [1] is “−”. At Aβ [2], the EM result was “+”. Also, at Aβ40, the “MS Assay” value was “+”.

For `COc1cc(NC(=N)N)ccc1-c1ccc(-c2ccc(NC(=N)N)cc2OC)o1` [Compound 121], at Aβ [1], the CD entry is “−”. Besides, the EM entry at Aβ [2] is reported as “+”. The “MS Assay” value on Aβ40 is “+”.

On to `N=C(N)c1ccc(-c2ccc(-c3nc4ccccc4[nH]3)o2)cc1` [Compound 122], for which the CD entry on Aβ [1] was “+”. Moreover, the EM result on Aβ [2] is on record as “+”. Also, the “MS Assay” value on Aβ40 was “+”.

As for `COc1ccc(-c2ccc(-c3ccc(NC(=N)N)cc3)o2)cc1` [Compound 123], the CD result on Aβ [1] was “−”. Moreover, on Aβ [2], the EM entry was “+”. The “MS Assay” value at Aβ40 is recorded as “+”.

`CCc1ccc(CCc2ccc(-c3nc4ccc(C(=N)N)cc4[nH]3)cc2)cc1` [Compound 125]: the CD result at Aβ [1] is recorded as “−”. The EM entry on Aβ [2] is “+”. Further, the “MS Assay” value on Aβ40 was “+”.

Consider `N=C(Nc1ccc(OCCCCCOc2ccc(NC(=N)c3ccccc3)cc2)cc1)c1ccccc1` [Compound 134], for which, at Aβ [1], the CD entry is recorded as “+”. For the same molecule, at Aβ [2], the EM entry is “−”. For the same molecule, the “MS Assay” value on Aβ40 is on record as “+”.
